Read-outs that look alike come from different tables or passages of the source. Where no end group is shown, it is not given here.
Assays:
[1] = biological target: T1, Angiotensin-converting enzyme (Oryctolagus cuniculus, UniProt P12822); assay: ACE-inhibitory activity, spectrophotometric assay (Cushman & Cheung, modified); assay type: biochemical; settings: synthetic peptides
T1 sequence (P12822 34-1310): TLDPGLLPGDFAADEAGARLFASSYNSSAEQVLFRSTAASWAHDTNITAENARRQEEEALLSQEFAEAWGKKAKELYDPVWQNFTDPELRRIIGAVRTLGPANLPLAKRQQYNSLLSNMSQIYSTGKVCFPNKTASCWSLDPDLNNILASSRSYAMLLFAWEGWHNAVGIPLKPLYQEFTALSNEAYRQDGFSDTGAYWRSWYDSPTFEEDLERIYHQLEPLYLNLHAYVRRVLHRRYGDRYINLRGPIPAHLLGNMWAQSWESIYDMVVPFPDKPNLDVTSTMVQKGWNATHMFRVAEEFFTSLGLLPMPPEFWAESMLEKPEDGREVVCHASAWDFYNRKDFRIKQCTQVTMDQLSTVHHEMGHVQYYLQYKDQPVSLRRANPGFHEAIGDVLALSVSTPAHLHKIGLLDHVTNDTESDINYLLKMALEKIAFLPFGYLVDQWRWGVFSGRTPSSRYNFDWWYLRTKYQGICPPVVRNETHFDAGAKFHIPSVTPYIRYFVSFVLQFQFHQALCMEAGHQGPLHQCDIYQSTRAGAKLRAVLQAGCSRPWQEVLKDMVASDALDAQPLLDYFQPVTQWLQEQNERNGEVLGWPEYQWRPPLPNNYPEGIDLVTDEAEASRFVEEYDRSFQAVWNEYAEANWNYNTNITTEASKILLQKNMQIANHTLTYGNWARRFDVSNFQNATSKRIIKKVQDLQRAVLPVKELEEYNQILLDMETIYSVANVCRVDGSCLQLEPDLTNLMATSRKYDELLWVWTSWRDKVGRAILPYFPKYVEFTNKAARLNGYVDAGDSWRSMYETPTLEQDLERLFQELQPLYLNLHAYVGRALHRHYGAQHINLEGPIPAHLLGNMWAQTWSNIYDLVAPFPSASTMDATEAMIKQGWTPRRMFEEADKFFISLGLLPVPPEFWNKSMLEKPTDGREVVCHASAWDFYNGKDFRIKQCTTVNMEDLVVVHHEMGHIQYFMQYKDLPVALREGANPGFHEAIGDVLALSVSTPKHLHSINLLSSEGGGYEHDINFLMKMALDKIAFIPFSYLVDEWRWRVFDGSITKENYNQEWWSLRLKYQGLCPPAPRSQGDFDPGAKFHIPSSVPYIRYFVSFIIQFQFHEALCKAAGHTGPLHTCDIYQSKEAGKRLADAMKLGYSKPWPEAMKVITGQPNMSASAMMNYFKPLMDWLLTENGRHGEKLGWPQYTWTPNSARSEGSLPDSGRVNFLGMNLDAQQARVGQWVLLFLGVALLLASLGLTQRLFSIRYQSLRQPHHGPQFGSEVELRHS
Description: ACE-inhibitory activity was measured by Cushman & Cheung 1971 (Biochemical Pharmacology, 20, 1637-1648) spectrophotometric assay with some modifications, as reported by (Quirós et al., 2007). For this purpose, protein concentration of the aliquots of the pepsin hydrolysate was determined by the Kjeldahl method. The protein content of the fractions collected from HPLC was estimated by the bicinchoninic acid assay (Pierce, Rockford, IL, USA) using bovine serum albumin, as standard, and peptide concentration of the chemically synthesized peptides was based in the dry weight of the peptides. Chemical synthesized peptides were purchased from GenScript Corp. (Piscataway, NJ, USA).

SHR rats = assay: Systolic blood pressure in spontaneously hypertensive rats, tail-cuff method; assay type: in vivo; settings: single oral dose 5 mg kg^-1, followed up to 24 hours
Description: All procedures were carried out in accordance with conventional guidelines for experimentation with animals. Twelve-week old male SHR rats were used (Janvier, France); they were housed in groups of four per cage in a regulated environment with a 12 h light/dark cycle in a standard experimental laboratory of the Animal Experimentation Service of the Salamanca University (N°PAE SA001). The animals were deprived of solid diet 12 hours before experiments began but received a nutritive solution of 8% sucrose in 0.2% NaCl to avoid excessive dehydratation. The rats received a single dose of the synthesized peptides or zofenopril (5 mg kg^-1) dissolved in ultrapure water and the control group received the same volume of water. Systolic blood pressure (SBP) was measured in awake rats with an automated multichannel system, using the tail-cuff method with a photoelectric sensor (Niprem 546, Cibertec SA, Spain) as described in Guerrero et al., 2003 (Journal of Cardiovascular Pharmacology 42: 348-355). SBP was measured before administration, and also at 2, 4, 6, 8, 10 and 24 hours post-administration. The changes in SBP were expressed as the differences before and after administration of the different products. Unpaired student's t-test was used to compare groups.

ACE = ACE (Homo sapiens, UniProt P12821); settings: cited from earlier work; for IC50: literature values; for ACE-inhibitory activity: literature, in vitro
SHR = settings: literature; cited from earlier work
human volunteers = settings: literature; cited from earlier work
[2] = mean ± standard error (n=3), read-out: IC50± SE

Sequence of ACE (P12821 30-1306, species assumed): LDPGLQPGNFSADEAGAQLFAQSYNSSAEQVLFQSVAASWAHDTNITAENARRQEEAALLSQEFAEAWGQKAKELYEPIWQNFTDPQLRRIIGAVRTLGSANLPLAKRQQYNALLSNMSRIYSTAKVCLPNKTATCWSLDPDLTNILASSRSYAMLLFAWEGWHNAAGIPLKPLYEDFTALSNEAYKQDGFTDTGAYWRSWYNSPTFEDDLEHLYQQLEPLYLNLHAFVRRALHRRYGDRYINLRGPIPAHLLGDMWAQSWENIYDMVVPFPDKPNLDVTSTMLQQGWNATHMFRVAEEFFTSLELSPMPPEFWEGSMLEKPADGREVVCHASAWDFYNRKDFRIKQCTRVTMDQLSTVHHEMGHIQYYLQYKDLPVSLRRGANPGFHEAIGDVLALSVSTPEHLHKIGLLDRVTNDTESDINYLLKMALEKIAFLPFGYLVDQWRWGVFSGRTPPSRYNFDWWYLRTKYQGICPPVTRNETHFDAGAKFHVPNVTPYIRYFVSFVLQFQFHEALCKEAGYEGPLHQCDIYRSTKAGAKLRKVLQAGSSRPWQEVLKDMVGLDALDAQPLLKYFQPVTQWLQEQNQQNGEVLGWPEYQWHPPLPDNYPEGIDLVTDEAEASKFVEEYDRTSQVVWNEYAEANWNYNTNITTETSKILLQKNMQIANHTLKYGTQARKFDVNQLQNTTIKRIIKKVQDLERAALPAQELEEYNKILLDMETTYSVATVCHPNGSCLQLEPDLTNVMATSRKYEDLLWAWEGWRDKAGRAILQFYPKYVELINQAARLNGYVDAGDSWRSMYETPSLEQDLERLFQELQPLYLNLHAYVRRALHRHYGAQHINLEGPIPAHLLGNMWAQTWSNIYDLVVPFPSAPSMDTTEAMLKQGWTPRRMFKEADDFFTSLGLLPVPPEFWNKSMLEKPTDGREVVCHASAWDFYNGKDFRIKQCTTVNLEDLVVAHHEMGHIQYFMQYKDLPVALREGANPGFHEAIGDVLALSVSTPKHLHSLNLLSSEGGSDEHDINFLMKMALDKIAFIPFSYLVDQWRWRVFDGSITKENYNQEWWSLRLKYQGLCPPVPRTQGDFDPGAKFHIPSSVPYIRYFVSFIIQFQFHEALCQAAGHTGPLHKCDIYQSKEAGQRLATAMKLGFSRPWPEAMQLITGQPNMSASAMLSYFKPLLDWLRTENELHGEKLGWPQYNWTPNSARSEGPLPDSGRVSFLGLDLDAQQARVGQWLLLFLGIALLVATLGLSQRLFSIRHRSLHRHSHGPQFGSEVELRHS

AYFYPEL [AYFYPEL]
IC50 [1, 2]: 6.58 ± 0.5 µM
IC50 ([1]; values in text, read-out: IC50): < 20 µM

FVAPFPEV [FVAPFPEV]
IC50 [1, 2]: 476 ± 41.7 µM

HLPLPLL [HLPLPLL]
IC50 [1, 2]: 34.4 ± 2.22 µM

RYLGY [RYLGY]
IC50 [1, 2]: 0.71 ± 0.08 µM
IC50 ([1]; values in text, read-out: IC50): < 20 µM
antihypertensive effect (change in SBP), in words (SHR rats): lowered SBP in a progressive and maintained manner

SEQ ID NO: 3: αs1-CN peptide previously described as an ACE inhibitor (DAYPSGAW)
IC50 (ACE): 98 µM

SEQ ID NO: 5: ACE-inhibitory peptide previously described in the literature, shares five residues with SEQ ID NO: 4 (ENLLRF)
IC50 (ACE): 82.4 µM

SEQ ID NO: 7: literature ACE-inhibitory sequence included in peptide SEQ ID NO: 6 (VTSTAV)
IC50 (ACE): 52 µM

SEQ ID O: 8: literature ACE-inhibitory peptide whose C-terminal tripeptide is LQY (FPQYLQY)
IC50 (ACE): 14 µM

VAPFPEVF [VAPFPEVF]
IC50 [1, 2]: 363 ± 23.6 µM

YQKFPQY [YQKFPQY]
IC50 [1, 2]: 20.1 ± 1.25 µM
IC50 ([1]; values in text, read-out: IC50): < 20 µM

αs1-casein f(23-27): literature peptide with ACE-inhibitory activity but no hypotensive effect in SHR (FFVAP; UniProt P02662 38-42, looked up, fragment)
ACE-inhibitory activity (ACE): potent ACE-inhibitory activity
hypotensive effect in SHR (SHR): no hypotensive effect

β-lactoglobulin f(142-148): literature peptide with in vitro ACE-inhibitory activity (ALPMHIR; UniProt P02754 158-164, looked up, fragment)
ACE-inhibitory activity (ACE): in vitro ACE-inhibitory activity
effect in human volunteers (human volunteers): did not have effect
